From ChEMBL document CHEMBL1201862, “PubChem BioAssay data set” (2004)
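Where inhibition never reached the appropriate level, the endpoint shown equals the highest concentration tested. Otherwise, values were interpolated linearly from a five-concentration, 48-hour dose response in 96-well plates. GI50 = concentration required for 50% inhibition of growth.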 Active and inactive are the calls of the source. Cut-off read from the data, not from the text of the source: active = GI50 up to about 1.1 µM and inactive = higher. Where a SMILES comes first, the peptide text is derived from it. [ ]: non-standard residue; d: D form. The star is where a group is joined. Chg = N[CH](C(=O)O)C1CCCCC1; Cbz = O=C(OCc1ccccc1)*; OBn = c1ccc(CO*)cc1

Tests used:
Experiment in all cases: DTP human tumour cell line panel, 48 h
CCRF-CEM = test system: CCRF-CEM
A498 = test system: A498
786-0 = test system: 786-0
M14 = test system: M14
EKVX = test system: EKVX
SK-MEL-5 = test system: SK-MEL-5
OVCAR-5 = test system: OVCAR-5
U-251 = test system: U-251
SF-268 = test system: SF-268
NCI-H226 = test system: NCI-H226
ACHN = test system: ACHN
SK-OV-3 = test system: SK-OV-3
SNB-75 = test system: SNB-75
OVCAR-3 = test system: OVCAR-3
MDA-MB-435 = test system: MDA-MB-435
DU-145 = test system: DU-145
T47D = test system: T47D
MCF7 = test system: MCF7
MDA-N = test system: MDA-N

| SMILES | GI50 (CCRF-CEM) | GI50 (A498) | GI50 (786-0) | GI50 (M14) | GI50 (EKVX) | GI50 (SK-MEL-5) | GI50 (OVCAR-5) | GI50 (U-251) | GI50 (SF-268) | GI50 (NCI-H226) | GI50 (ACHN) | GI50 (SK-OV-3) | GI50 (SNB-75) | GI50 (OVCAR-3) | GI50 (MDA-MB-435) | GI50 (DU-145) | GI50 (T47D) | GI50 (MCF7) | GI50 (MDA-N) |
| --- | --- | --- | --- | --- | --- | --- | --- | --- | --- | --- | --- | --- | --- | --- | --- | --- | --- | --- | --- |
| COC(=O)[C@@]12OC[C@]34C([C@@H](O)C1O)[C@@]1(C)CC(=O)C(O)=C(C)C1C[C@H]3OC(=O)[C@H](OC(=O)/C=C(/c1ccccc1)C(F)(F)F)[C@H]42 (some centres undefined) | 3.88 µM (inactive) | 1.82 µM (inactive) | 7.93 µM (inactive) | 3.54 µM (inactive) | 12 µM (inactive) | 3.28 µM (inactive) | 8.75 µM (inactive) | 4.41 µM (inactive) | 8.81 µM (inactive) | 2.02 µM (inactive) | 4.21 µM (inactive) | 7.29 µM (inactive) | 7.8 µM (inactive) |  |  |  |  |  |  |
| CC12C(=O)N(CCN)C(=O)C1C1c3ccccc3C2c2ccccc21 (centres undefined) | > 100 µM (inactive) | > 100 µM (inactive) | > 100 µM (inactive) | > 100 µM (inactive) | > 100 µM (inactive) | > 100 µM (inactive) | > 100 µM (inactive) | > 100 µM (inactive) | > 100 µM (inactive) | > 100 µM (inactive) | > 100 µM (inactive) | > 100 µM (inactive) | 37.3 µM (inactive) | > 100 µM (inactive) |  |  |  |  |  |
| CCOC(=O)C(C)(C)Oc1ccc2c(-c3ccc(Cl)cc3)cc(=O)oc2c1 | > 100 µM (inactive) | > 100 µM (inactive) | > 100 µM (inactive) | > 100 µM (inactive) | > 100 µM (inactive) | 74.8 µM (inactive) |  | > 100 µM (inactive) | > 100 µM (inactive) | > 100 µM (inactive) | > 100 µM (inactive) |  | 19.3 µM (inactive) | > 100 µM (inactive) |  |  |  |  |  |
| CN(C)c1ccc(/C=C(/NC(=O)c2ccccc2)c2nc3cc(Cl)ccc3[nH]2)cc1 | 22.4 µM (inactive) | 72.3 µM (inactive) | 27.8 µM (inactive) | 32.7 µM (inactive) | 87.3 µM (inactive) | 21.6 µM (inactive) | 26 µM (inactive) | 35.5 µM (inactive) | > 100 µM (inactive) | 30.8 µM (inactive) | 48.9 µM (inactive) | 52.6 µM (inactive) | 17.9 µM (inactive) | 0.0123 µM (active) |  |  |  |  |  |
| CCC1(O)C(=O)OCc2c1cc1n(c2=O)Cc2cc3ccc(CO)cc3nc2-1 (centres undefined) | 0.186 µM (active) | 7.82 µM (inactive) | 1.99 µM (inactive) | 3.59 µM (inactive) | 16.8 µM (inactive) | 3.08 µM (inactive) | 8.97 µM (inactive) | 0.705 µM (active) | 0.995 µM (active) | 1.59 µM (inactive) | 2.86 µM (inactive) | 2.26 µM (inactive) | 2.18 µM (inactive) | 4.55 µM (inactive) |  |  |  |  |  |
| CC(=O)C1CC2(c3ccccc3)C(=O)c3ccccc3N2O1 (centres undefined) | > 100 µM (inactive) | > 100 µM (inactive) | > 100 µM (inactive) | > 100 µM (inactive) | > 100 µM (inactive) | > 100 µM (inactive) |  | > 100 µM (inactive) | > 100 µM (inactive) | > 100 µM (inactive) | > 100 µM (inactive) | > 100 µM (inactive) | > 100 µM (inactive) |  |  |  |  |  |  |
| CCC(C)CC(C)CC(C)/C=C(\C)C1=C(C)CC(C)(O)O1 (centres undefined) | 52.6 µM (inactive) | > 100 µM (inactive) | 9.53 µM (inactive) | > 100 µM (inactive) | > 100 µM (inactive) | 92.5 µM (inactive) |  | 61.8 µM (inactive) |  | 76.9 µM (inactive) | 87.5 µM (inactive) | > 100 µM (inactive) | > 100 µM (inactive) |  |  |  |  |  |  |
| Cn1c2ccccc2n2c(=O)c3c(c(C#N)c12)CCCC3 |  | > 100 µM (inactive) | > 100 µM (inactive) | > 100 µM (inactive) | > 100 µM (inactive) | > 100 µM (inactive) | > 100 µM (inactive) | > 100 µM (inactive) | > 100 µM (inactive) | > 100 µM (inactive) | > 100 µM (inactive) | > 100 µM (inactive) | 0.792 µM (active) | > 100 µM (inactive) |  |  |  |  |  |
| CC1SC2=NC3=C(c4ccccc4C3=O)C(c3ccc(F)cc3)N2C1=O (centres undefined) | > 100 µM (inactive) | > 100 µM (inactive) | > 100 µM (inactive) | > 100 µM (inactive) | > 100 µM (inactive) | > 100 µM (inactive) | > 100 µM (inactive) | > 100 µM (inactive) | > 100 µM (inactive) | 38.5 µM (inactive) | > 100 µM (inactive) | > 100 µM (inactive) | 35.6 µM (inactive) | > 100 µM (inactive) |  |  |  |  |  |
| Nc1ccccc1[S+]([O-])c1ccccc1 (centres undefined) | > 100 µM (inactive) | > 100 µM (inactive) | > 100 µM (inactive) | > 100 µM (inactive) | > 100 µM (inactive) | > 100 µM (inactive) | > 100 µM (inactive) | > 100 µM (inactive) | > 100 µM (inactive) | > 100 µM (inactive) | > 100 µM (inactive) | > 100 µM (inactive) | > 100 µM (inactive) | > 100 µM (inactive) |  |  |  |  |  |
| COc1ccc2c(c1)CCCN1CCc3ccccc3C21 (centres undefined) | 26.1 µM (inactive) | 55.3 µM (inactive) | 26.6 µM (inactive) | 20.4 µM (inactive) | 76.4 µM (inactive) | 33.8 µM (inactive) | 70.3 µM (inactive) | 28.4 µM (inactive) | 39.9 µM (inactive) | 30.1 µM (inactive) | 47.3 µM (inactive) | 52.2 µM (inactive) | 16.4 µM (inactive) | 30.2 µM (inactive) | 21.7 µM (inactive) | > 100 µM (inactive) | 77.3 µM (inactive) | 69.7 µM (inactive) | 18.9 µM (inactive) |
| COC(=O)C(NC(=O)C(CC(=O)OCc1ccccc1)NC(=O)OCc1ccccc1)C1CCCCC1 (centres undefined) (Cbz-Asp(OBn)-[Chg]-OMe; configuration not given here) | > 100 µM (inactive) |  | > 100 µM (inactive) | > 100 µM (inactive) | > 100 µM (inactive) | 0.195 µM (active) | > 100 µM (inactive) | > 100 µM (inactive) | > 100 µM (inactive) | > 100 µM (inactive) | > 100 µM (inactive) | > 100 µM (inactive) | 62.8 µM (inactive) | > 100 µM (inactive) | > 100 µM (inactive) | > 100 µM (inactive) | 48 µM (inactive) | > 100 µM (inactive) | > 100 µM (inactive) |
| CC(=O)CC(=O)NC=O | > 100 µM (inactive) | > 100 µM (inactive) | > 100 µM (inactive) | > 100 µM (inactive) | > 100 µM (inactive) | > 100 µM (inactive) | > 100 µM (inactive) | > 100 µM (inactive) | > 100 µM (inactive) | > 100 µM (inactive) | > 100 µM (inactive) | > 100 µM (inactive) | > 100 µM (inactive) | > 100 µM (inactive) |  |  |  |  |  |
| CC1(C)CCC(C)(C)C1C(=O)NC(O)C(=O)O (centres undefined) | > 100 µM (inactive) | > 100 µM (inactive) | > 100 µM (inactive) | > 100 µM (inactive) | > 100 µM (inactive) | > 100 µM (inactive) | > 100 µM (inactive) | > 100 µM (inactive) | > 100 µM (inactive) | > 100 µM (inactive) | > 100 µM (inactive) | > 100 µM (inactive) | > 100 µM (inactive) |  | > 100 µM (inactive) | > 100 µM (inactive) | > 100 µM (inactive) | > 100 µM (inactive) | > 100 µM (inactive) |
| COc1ccc(CCc2ccccc2CC(=O)O)cc1 | > 100 µM (inactive) | > 100 µM (inactive) | > 100 µM (inactive) | > 100 µM (inactive) | > 100 µM (inactive) | > 100 µM (inactive) | > 100 µM (inactive) | > 100 µM (inactive) | > 100 µM (inactive) | > 100 µM (inactive) | > 100 µM (inactive) | > 100 µM (inactive) | > 100 µM (inactive) | > 100 µM (inactive) |  |  |  |  |  |
| Cc1cc(Cl)ccc1NC1=NC(=O)C(CC(=O)Nc2ccc([N+](=O)[O-])cc2[N+](=O)[O-])S1 (centres undefined) | 23.4 µM (inactive) | 23.4 µM (inactive) | 34.8 µM (inactive) | 24.2 µM (inactive) | 38.6 µM (inactive) | 15.6 µM (inactive) | 24.2 µM (inactive) | 23.3 µM (inactive) | 38 µM (inactive) |  | 25.1 µM (inactive) | 25.2 µM (inactive) | 14.5 µM (inactive) | 23.6 µM (inactive) |  |  |  |  |  |
| O=C(Cc1ccccc1)NS(=O)(=O)c1ccccc1 | > 100 µM (inactive) | > 100 µM (inactive) | > 100 µM (inactive) | > 100 µM (inactive) | > 100 µM (inactive) |  | > 100 µM (inactive) | > 100 µM (inactive) | > 100 µM (inactive) | > 100 µM (inactive) | > 100 µM (inactive) | > 100 µM (inactive) | > 100 µM (inactive) | > 100 µM (inactive) |  |  |  |  |  |
| C[C@@H]1C2=CC[C@@]3(C)C(CCC3[C@H](C)[C@H]3C[C@@]4(C)O[C@@](c5cccnc5)(O3)OC4(C)C)[C@@H]2C2OC2[C@@]12CCC(=O)O2 (some centres undefined) | 31 µM (inactive) | > 100 µM (inactive) | 38.2 µM (inactive) | 26.1 µM (inactive) |  | 33 µM (inactive) | 57.4 µM (inactive) | 35.6 µM (inactive) | > 100 µM (inactive) |  | 46.5 µM (inactive) | 39.9 µM (inactive) | 34 µM (inactive) | 24.1 µM (inactive) |  |  |  |  |  |
| CCOC(=O)Cn1c(=O)c2nc(SC)sc2n(-c2ccccc2)c1=S | > 100 µM (inactive) |  | 12.1 µM (inactive) | 32.5 µM (inactive) |  | > 100 µM (inactive) | 93.3 µM (inactive) | 13.4 µM (inactive) | 32.4 µM (inactive) | 18.4 µM (inactive) | 13.9 µM (inactive) | 22.7 µM (inactive) | 4.1 µM (inactive) | 26.6 µM (inactive) | 64.6 µM (inactive) | > 100 µM (inactive) | 40.8 µM (inactive) | > 100 µM (inactive) | 40.8 µM (inactive) |
